{"source": "patent US20210115040A1", "about": "“OGA INHIBITOR COMPOUNDS” (Janssen Pharmaceutica NV, priority 2018, published 2021)", "biological_target": "T1, recombinant human Meningioma Expressed Antigen 5 (MGEA5), also referred to as O-GlcNAcase (OGA) (Homo sapiens, UniProt O60502)", "T1 construct": "Full length OGA enzyme was purchased at OriGene (cat #TP322411); purchased OriGene TP322411", "T1 sequence (O60502 1-916)": "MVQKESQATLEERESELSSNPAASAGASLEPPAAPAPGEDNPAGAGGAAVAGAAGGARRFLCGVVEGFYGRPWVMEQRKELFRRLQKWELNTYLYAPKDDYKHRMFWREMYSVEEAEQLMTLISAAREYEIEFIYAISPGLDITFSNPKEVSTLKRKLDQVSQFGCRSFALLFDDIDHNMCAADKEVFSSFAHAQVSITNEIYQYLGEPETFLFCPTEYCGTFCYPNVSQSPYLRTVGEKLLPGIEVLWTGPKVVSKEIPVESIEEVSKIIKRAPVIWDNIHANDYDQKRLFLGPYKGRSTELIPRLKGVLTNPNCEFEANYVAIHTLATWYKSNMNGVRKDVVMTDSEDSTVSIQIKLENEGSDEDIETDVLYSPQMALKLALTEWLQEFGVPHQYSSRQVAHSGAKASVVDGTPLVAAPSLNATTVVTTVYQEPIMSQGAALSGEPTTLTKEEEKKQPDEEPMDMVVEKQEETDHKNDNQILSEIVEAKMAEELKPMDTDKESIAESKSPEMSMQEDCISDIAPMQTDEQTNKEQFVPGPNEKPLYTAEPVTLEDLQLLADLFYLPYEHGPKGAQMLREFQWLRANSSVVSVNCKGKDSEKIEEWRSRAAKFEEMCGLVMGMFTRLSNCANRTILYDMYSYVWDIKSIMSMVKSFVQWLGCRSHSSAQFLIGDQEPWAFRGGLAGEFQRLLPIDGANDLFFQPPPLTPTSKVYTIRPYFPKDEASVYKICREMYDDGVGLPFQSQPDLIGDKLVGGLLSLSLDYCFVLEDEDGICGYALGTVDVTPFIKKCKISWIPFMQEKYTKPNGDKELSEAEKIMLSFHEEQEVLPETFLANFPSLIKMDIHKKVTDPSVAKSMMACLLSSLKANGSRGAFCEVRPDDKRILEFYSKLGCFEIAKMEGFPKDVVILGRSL", "assay": "OGA biochemical assay (inhibition of FM-GlcNAc hydrolysis, fluorescence)", "settings": "FM-GlcNAc substrate", "in_short": "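Full-length OGA (2 nM) pre-incubated 60 min at room temperature with compound, then FM-GlcNAc (100 uM final) hydrolysed 6 h at room temperature in 200 mM citrate/phosphate pH 7.2 with 0.005% Tween-20. Stopped with carbonate pH 11.0; fluorescein read at ex 485/em 538 nm. IC50 and Hill coefficient from curve fit between no-inhibitor and saturating-standard controls.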"}
{"compound": "Cc1cc(C2CCCN(C(C)c3ccc4sc(C)nc4n3)C2)cc(C)n1", "note": "(racemic) [Compound 39]", "values": [{"measurement": "IC50", "setting": "6 h at room temperature, read-out: Enzymatic hOGA, pIC50 (converted)", "result": 12.6, "unit": "nM"}, {"measurement": "Emax", "setting": "maximal effect, read-out: Enzymatic Emax (%)", "result": 99, "unit": "%"}]}
